The results in this text go back to US20120329761A1, “USE OF TIGECYCLINE FOR TREATMENT OF CANCER” (UNIVERSITY HEALTH NETWORK, priority 2010, published 2012).

Series [1] deals with TEX cells. In words: Mitochondrial membrane potential, JC-1 dye. As to conditions: 5 μM, times preceding onset of cell death. Format: cell-based, human. The procedure: (§1) FIG. 4. Tigecycline decreases mitochondrial Cox-1 protein levels in TEX cells. (A) Cells from TEX, OCI-AML2 and two primary AML patients were treated with increasing concentrations (2.5 μM and 5 μM) of tigecycline for 36 and 48 hours of tigecycline. Total proteins were extracted and analyzed by western blotting for Cox-1, Cox-2, Cox-4, grp78, XIAP, actin and tubulin. (B) TEX and AML patient cells were treated with increasing concentrations (2.5 μM and 5 μM) of tigecycline. Cox-1, Cox-2, and Cox-4 mRNA expression relative 18S was determined by quantitative RT-PCR. Data is shown as mean±SD. (C) TEX cells were treated with increasing concentrations of tigecycline and chloramphenicol (CAP) for 72 hours. Complex I, II and IV enzyme activity relative to citrate synthase activity was determined as described in materials and methods. (D) Cells from TEX, primary AML patients, and normal donors were treated with increasing concentrations of tigecycline. Mitochondrial membrane potential (Δψ) was determined by staining cells with JC-1 dye, and flow cytometry analysis (Red/Green ratio). Reactive oxygen species generation (ROS) was determined by staining with h2-DCFDA and Dihydroethidium (DHE).
(§2) To measure mitochondrial membrane potential, cells were treated with tigecycline similarly as described above and then washed twice with PBS and incubated with 5 μM of 5,5′,6,6′-tetrachloro-1,1′,3,3′-tetraethyl benzimidazolylcarbocyanine iodide (JC-1, Sigma-Aldrich) for 20 minutes at 37° C. Each sample was then washed twice with 1 mL PBS and resuspended in 500 μL PBS prior to being read on a BD FACSCalibur. Samples were excited at 488 nm and emission was collected at 526 nm (green) and 595 nm (red). Analysis was conducted using FlowJo software (TreeStar Inc). […]
(§3) During oxidative phosphorylation, the intermediate between oxygen reduction and ATP synthesis is the electrochemical proton gradient, comprised mostly of the mitochondrial membrane potential. […] The effect of tigecycline treatment on the mitochondrial membrane potential as determined by the carbocyanine dye JC-1 was examined. […]

In series [2] the test system is normal hematopoietic cells. In words: Mitochondrial membrane potential, JC-1 dye. Particulars: normal hematopoietic cells from two G-CSF mobilized normal donors. The format is cell-based, human. The procedure: as §1, §2, §3
The subject of series [3] is primary AML samples. Put plainly: Mitochondrial membrane potential, JC-1 dye. The format is cell-based, human. As to conditions: three primary AML samples, 5 μM, times preceding onset of cell death. The procedure: as §1, §2, §3
Series [4] has as its system myeloma cell lines. In words: Cell growth and viability, MTS assay, 72 hours. The format is cell-based. The procedure:
(§4) FIG. 1. […] (A) TEX and (B) M9-ENL1 cells were plated in 96-well plates and drugs were added to the wells (5 μL per well) for final concentrations of 10 μM (shown) and 1 μM. Cell growth and viability was measured at 48 hours (M9-ENL-1) and 72 hours (TEX) by MTS assay. Cell viability is shown for each compound as a percent of cells treated with DMSO alone. (C) Leukemia, (D) myeloma, and (E) solid tumor cell lines were seeded in 96-well plates and then treated with increasing concentrations of tigecycline. Cell growth and viability was measured at 72 hours by MTS assay. Cell viability is expressed as mean percentage plus or minus SD (n=3) relative to vehicle-treated cells. […] Cell viability was measured at 72 hours by MTS assay. Cell viability is expressed as mean percentage plus or minus SD (n=3) relative to vehicle-treated cells.
(§5) Human leukemia (OCI-AML2, HL60, U937) cell lines were maintained in RPMI 1640 medium. Myeloma (LP-1, KMS11, 8226, JJN3, OP-M2) cell lines were maintained in Iscove's media. Ovarian (OVCAR), prostate (PC3), and lung alveolar (A549) cell lines were maintained in RPMI 1640 medium. Media was supplemented with 10% fetal calf serum (FCS), […] (all from Hyclone, Logan, Utah). TEX cells were maintained in IMDM, 15% FBS, 2 mM L-glutamine, 1%, penicillin-streptomycin, 20 ng/mL SCF, 2 ng/mL IL-3. M9-ENL1 cells were maintained in alpha-MEM, 20% FBS, 5% human plasma, 2 mM L-glutamine, 1%, penicillin-streptomycin, 100 ng/mL SCF, 10 ng/mL IL-3, 5 ng/mL IL-7, and 5 ng/mL FLT3L. All cells were incubated at 37° C. in a humidified air atmosphere supplemented with 5% CO2.
(§6) Cell growth and viability was assessed by the MTS assay (Promega, Madison, Wis.) according to the manufacturer's instructions. Apoptosis and cell death was measured by Annexin V-fluoroscein isothiocyanate (FITC; Biovision Research Products, Mountain View, Calif.), propidium iodide staining and flow cytometry according to the manufacturer's instructions and as previously described^30.

For series [5], the system named is solid tumour cell lines. In words: Cell growth and viability, MTS assay, 72 hours. Format: cell-based. The procedure:
as §4, §5, §6
Background: Tetrazolium assays rely on reduction of a dye to a coloured formazan, in cell work by metabolically active cells.

In series [6] the test system is leukemia cell lines. In words: Cell growth and viability, MTS assay, 72 hours. Format: cell-based. As to conditions: tested leukemia cell lines. The procedure:
as §4, §5, §6

Series [7] concerns TEX cells. Put plainly: Apoptosis by Annexin V flow cytometry. Particulars: over time. Format: cell-based, human. The procedure:
as §4, §6
Background: In flow cytometry, cells or beads pass a laser one at a time.

Series [8] relates to Complex I, II and IV. In words: Respiratory chain complex enzyme activity relative to citrate synthase. As to conditions: TEX cells, 2.5 μM and 5 μM, 72 hours. Format: cell-based, human. The procedure: as §1
The effect of tigecycline treatment on enzyme activity of the respiratory chain complexes relative to the mitochondrial non-respiratory chain enzyme citrate synthase was examined. TEX leukemia cells were treated with tigecycline for […] and then respiratory chain enzyme relative to citrate synthase activity was analyzed. Equivalent tigecycline concentrations (2.5 μM and 5 μM) decreased enzyme activities of Complexes I and IV relative to citrate synthase, while complex II activity was less affected (FIG. 4C).

Series [9] in a line: PK study in mice, single dose i.p. Format: in vivo. Particulars: mouse, serum, ip, single dose 50 mg/kg i.p.

As a reminder, the IC50 is the concentration at which inhibition is half-maximal. High values mean a need for much substance, low ones inhibition by little substance. For orientation: Tmax means the time at which the peak concentration occurs. By half-life is commonly meant the time in which the quantity being followed falls by half. Lower therefore signals fast loss. `CN(C)c1cc(NC(=O)CNC(C)(C)C)c(O)c2c1C[C@H]1C[C@H]3[C@H](N(C)C)C(O)=C(C(N)=O)C(=O)[C@@]3(O)C(O)=C1C2=O` [tigecycline]: in series [1], the “mitochondrial membrane potential (JC-1 Red/Green ratio)” value is “decreased mitochondrial membrane potential”. For the same compound, in series [2], the “loss of mitochondrial membrane potential” value is on record as “not seen”. Further, the “mitochondrial membrane potential (JC-1 Red/Green ratio)” value in series [3] is given as “decreased mitochondrial membrane potential”. The IC50 in series [4] is over 10 µM. In addition, the IC50 in [5] was over 10 µM. In series [6], this compound had an IC50 of 5 to 8 µM. The “apoptosis, percentage of cells labeled by Annexin V” value in series [7] is on record as “time-dependent increases in apoptosis”. Besides, in series [8], the “Complex I enzyme activity relative to citrate synthase” value is given as “decreased”, the “Complex II enzyme activity relative to citrate synthase” value is “less affected” and the “Complex IV enzyme activity relative to citrate synthase” value was “decreased”. Also, in series [9], the Tmax is about 0.5 h and the half-life is about 4.5 h.
